# According to patent US6894074B2, “Synergistic insecticidal mixtures” (Bayer Aktiengesellschaft, priority 1999, dated 2005):
# What was measured:
# Type in all cases: in vivo
# white fly Bemisia tabaci = assay: Bemisia test: infested cotton plants dipped into preparation of active compound, kill in %; settings: 4 ppm active compound
# Source text: The expected activity for a given combinatin of two active compounds can be calculated as follows (according to S. R. Colby, Weeds 15 (1967), 20-22):
# If the actual activity exceeds the calculated value, then the activity of the combination is superadditive, i.e. a synergistic effect exists. In this case, the efficacy which was actually observed must be greater than the value for the expected efficacy (E) calculated from the abovementioned formula.
# To produce a suitable preparation of active compound, 1 part by weight of active compound is mixed with the stated amounts of solvent and emulsifier, and the concentrate is diluted with water to the desired concentrations.
# Cotton plants (Gossypium hirsutum) which are infested by eggs, larvae and puparia of the white fly Bemisia tabaci are dipped into a preparation of active compound of the desired concentration.
# After the desired period of time, the kill in % is determined. 100% means that all animals have been killed; 0% means that none of the animals have been killed.
# Aphis gossypii = assay: Field spray test against Aphis gossypii on courgettes, efficacy by the method of Abbott; settings: 4 spray applications
# Procedure: The spray liquor (1000 l of water/ha) comprising the active compound(s) was applied using a knapsack sprayer operated with compressed air. 4 spray applications were carried out at intervals of 9-13 days. The plot size was 12 m^2. The effect on the aphids was determined 7, 16 and 29 days after the last application (start of the infestation after the 2nd treatment) by counting the animals which were still alive/leaf (10 leaves/plot) and calculating the efficacy by the method of Abbott.
# Bemisia tabaci = assay: Field spray test against Bemisia tabaci on cotton, efficacy by the method of Abbott; settings: larvae on cotton
# Procedure: The spray liquor (1000 l of water/ha) comprising the active compound(s) was applied using a knapsack sprayer operated by pressurized air. The plot size was 19 m^2. The effect was evaluated 7, 10 and 14 days after the application by determining the number of larvae still alive on the leaf undersurface (10 leaves/plot) and calculating the efficacy by the method of Abbott.
Compound,Kill in % after 10 d (white fly Bemisia tabaci) [%],"Efficacy % Abbott (Aphis gossypii; 0.015 % active compound, 7 days after the last treatment) [%]","Efficacy % Abbott (Aphis gossypii; 0.015 % active compound, 16 days after the last treatment) [%]","Efficacy % Abbott (Aphis gossypii; 0.015 % active compound, 29 days after the last treatment) [%]","Efficacy % Abbott (Bemisia tabaci; 0.0096 kg of active compound/ha, 7 days after treatment) [%]","Efficacy % Abbott (Bemisia tabaci; 0.0096 kg of active compound/ha, 10 days after treatment) [%]","Efficacy % Abbott (Bemisia tabaci; 0.0096 kg of active compound/ha, 14 days after treatment) [%]","Efficacy % Abbott (Aphis gossypii; 0.0144 % active compound, 7 days after the last treatment) [%]","Efficacy % Abbott (Aphis gossypii; 0.0144 % active compound, 16 days after the last treatment) [%]","Efficacy % Abbott (Aphis gossypii; 0.0144 % active compound, 29 days after the last treatment) [%]","Efficacy % Abbott (Bemisia tabaci; 0.096 kg of active compound/ha, 7 days after treatment) [%]","Efficacy % Abbott (Bemisia tabaci; 0.096 kg of active compound/ha, 10 days after treatment) [%]","Efficacy % Abbott (Bemisia tabaci; 0.096 kg of active compound/ha, 14 days after treatment) [%]"
O=[N+]([O-])/N=C1\NCCN1Cc1ccc(Cl)nc1 [Ex. (IIa)],0,100,89,33,,,,,,,,,
Cc1cc(C)c(C2=C(OC(=O)CC(C)(C)C)C3(CCCC3)OC2=O)c(C)c1 [Ex. (Ia)],0,,,,49,87,78,0,0,0,,,
N#C/N=C1\SCCN1Cc1ccc(Cl)nc1 [IIk],,,,,,,,,,,86,61,68
